Laboratory results taken from patent US20250163057A1, “DCN-1 MODULATING COMPOUNDS AND METHODS OF USE THEREOF” (Cellarity, Inc., priority 2023, published 2025).

Experiments:
[1] = test system: fetal hemoglobin protein (HbF) in human erythroid progenitor cells; experiment: Humanized mouse model: HbF protein in bone marrow by AlphaLISA; type: in vivo, NBSGW mice reconstituted with human CD34+ cells; conditions: for HbF protein levels (AlphaLISA) normalized for % GlyA+ cells: FIG. 10B, most treatment groups
Text: (§1) Results: To evaluate induction of target cell activity in the bone marrow, a humanized mouse model was developed. This model entails the reconstitution of human hematopoietic progenitor cells within the bone marrow of immunodeficient nonirradiated NOD.Cg-KitW-41J Tyr^+ Prkdc^scid Il2rg^tmlwjl/ThomJ (NBSGW) strain recipient mice. These mice are competent to engraft and differentiate human erythroid progenitor cells that express human adult hemoglobin mRNA and protein subunits within bone marrow.
(§2) Based on these exposure results, humanized mice were treated with either the clinical standard of care compound, hydroxyurea (50 mg/kg; bid), or I-73, at 25 and 100 mg/kg (bid), by oral gavage over a three-week period. At the end of the treatment period, bone marrow was harvested for flow cytometry, as well as for assessment of HbF protein and fetal hemoglobin (HBG1) mRNA levels. Levels of both HbF protein and HBG1 mRNA were normalized to the percentage of human erythroid progenitor cells in the bone marrow of each mouse as determined by immunofluorescence staining for human Glycophorin A cell membrane expression. […] In addition, relative levels of fetal hemoglobin to those of potentially sickling-prone adult hemoglobin (HBB) was assessed.
(§3) Female, 6-week-old NOD.Cg-Kit^W-41J Tyr^+ Prkdc^scid Il2rg^tm1Wjl/ThomJ (NBSGW) mice (Jackson Laboratory strain #[…]) were used for these studies. The mice were acclimatized to laboratory conditions for 5 days prior to inoculation.
(§4) GCSF-mobilized human CD34+ cells were removed from liquid nitrogen storage, thawed in a 37° C. water bath and transferred quickly into a 50 mL conical tube. Cryovial was rinsed once with thaw buffer, 0.1% BSA in phosphate buffered saline (PBS), and buffer was transferred and combined with the original contents in the 50 mL conical tube. Next, doubling volumes of thaw buffer was added to the conical and gently swirled for ˜30 seconds to one minute until the volume in the conical was 32 mL. Cells and buffer were centrifuged at 300G for 8 minutes, and the supernatants were aspirated. Cells were counted by resuspending in 1 mL of thawing buffer per million of cells to a target concentration range of 0.5 to 2M/ml and counting with AOPI (1:1) on a luna cell counter to confirm the concentration of cells/mL. The cell concentration was adjusted to 3×10^6 cells/ml. For each mouse, 300 thousand cells in 0.1 ml were injected into the tail vein with a 25-gauge needle.
(§5) On day 56 after human cell adoptive transfer, whole blood was collected from each mouse by submandibular bleed and a 100 μL sample of EDTA whole blood was transferred to a 2 ml tube containing 1.8 mL ACK Lysing Buffer at room temperature (RT), and then inverted to mix. Samples were incubated at RT for 15 min in the dark to lyse. After lysis, samples are centrifuged at 500×g for 5 minutes at RT to enable supernatant decanting. Remaining cells were washed with 1 mL of PBS-0.5% BSA and centrifuged at 500×g for 5 minutes at 4° C. Supernatant was decanted and cells were stained with leukocyte markers (human and mouse CD45 antibodies; BD347464, BD557659) to confirm human cell engraftment. Mice having less than one percent, or greater than ten percent, human CD45 positive cells were excluded from the subsequent study. Remaining mice were then randomized into treatment groups based on percentage of human cell engraftment. Each treatment group included 10-11 mice.
(§6) Compound I-73 was dissolved in a 5% Cremophor RH40, 20% hydroxylpropyl-β-cyclodextrin solution. Hydroxyurea was solubilized in PBS. Formulations were prepared fresh daily. Commencing on day 84 post human cell engraftment, mice were treated by oral gavage with either I-73, hydroxyurea or their respective vehicles, for a period of three weeks using either once daily (QD) or twice daily (BID) dosing regimens. Mice were monitored daily for body weight and condition. […]

[2] = test system: fetal hemoglobin gene expression (HBG1) in human erythroid progenitor cells; experiment: Humanized mouse model: fetal hemoglobin mRNA (HBG1, HBB) in bone marrow by Nanostring; type: in vivo, NBSGW mice reconstituted with human CD34+ cells; conditions: for HBG1 expression compared to vehicle (HBG1 alone or HBG1 to total beta hemoglobin mRNA): FIGS. 11A-11C, various doses and treatment regimes
Text: as §1, §2, §3, §4, §5, §6

[3] = humanized mouse model, human erythroid progenitor cells, dose not given at this place

SMILES | HbF protein levels in bone marrow (AlphaLISA) compared to vehicle-treated mice ([1]; 25 and 100 mg/kg bid, oral gavage, three weeks, normalized to % GlyA+ cells (FIG. 1A)) | HbF protein levels (AlphaLISA) normalized for % GlyA+ cells [1] | difference in HbF protein levels between the 25 and the 100 mg/kg doses ([1]; bid, oral gavage, three weeks) | induction of fetal hemoglobin protein (HbF) [1, 3] | HBG1 mRNA transcript levels (Nanostring) ([2]; 25 and 100 mg/kg bid, oral gavage, three weeks (FIG. 1B)) | ratios of HBG1 to HBB mRNA compared with hydroxyurea (50 mg/kg bid) ([2]; 25 and 100 mg/kg bid, oral gavage, three weeks (FIG. 1C)) | HBG1 expression compared to vehicle (HBG1 alone or HBG1 to total beta hemoglobin mRNA) [2] | induction of fetal hemoglobin mRNA (HBG1) [2, 3] | ratio of fetal HBG1 hemoglobin mRNA to adult hemoglobin mRNA (HBB), compared with HU ([2]; humanized mouse model, dose not given at this place)
CCN1C(=O)[C@@H](NC(=O)c2cccc(C(F)(F)F)c2)[C@@H](c2ccc(F)cc2)c2c([C@@H](C)NC#N)nn(-c3ccccc3)c21 [Compound I-73, N-((4S,5S)-3-((R)-1-cyanamidoethyl)-7-ethyl-4-(4-fluorophenyl)-6-oxo-1-phenyl-4,5,6,7-tetrahydro-1H-pyrazolo[3,4-b]pyridin-5-yl)-3-(trifluoromethyl)benzamide] | significantly increases | increased HbF protein levels | no significant difference | an induction of both HBG1 mRNA and HbF protein was observed | enhanced transcript levels | significantly greater ratios | increased HBG1 expression compared to vehicle | an induction of both HBG1 mRNA and HbF protein was observed | significantly greater than HU standard of care
CCN1C(=O)[C@@H](NC(=O)c2cccc(C(F)(F)F)c2)[C@@H](C2CC2)c2c(C(=O)N3[C@H](C#N)C[C@H]4C[C@H]43)nn(C3CCOCC3)c21 [Compound I-256, N-((4S,5S)-3-((1R,3S,5R)-3-cyano-2-azabicyclo[3.1.0]hexane-2-carbonyl)-4-cyclopropyl-7-ethyl-6-oxo-1-(tetrahydro-2H-pyran-4-yl)-4,5,6,7-tetrahydro-1H-pyrazolo[3,4-b]pyridin-5-yl)-3-(trifluoromethyl)benzamide] |  | increased HbF protein levels |  |  |  |  | increased HBG1 expression compared to vehicle |  | 
